How the values were obtained:
ZR-75-1 [1] = experiment: relative IC50 (midpoint of fitted logistic curve, plateau may be below 50% inhibition; CellTiter-Glo viability); higher = less potent; details: 72 h
Description: (§1)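 FIMM FO2B library drugs were plated at 5 concentrations spanning a 10,000-fold range in 384-well plates. Cells were incubated for 72 h at 37 °C and viability was read by CellTiter-Glo, normalised to DMSO (0% inhibition) and 100 µM benzethonium chloride (100% inhibition). IC50 values come from logistic dose-response fits (Breeze pipeline). Tamoxifen-resistant lines and the 'in 1µM tamoxifen' parental arms were tested in medium with 1 µM 4-OH-tamoxifen.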

T-47D [2] = experiment: as above; details: 72 h
Description: as §1

ZR-75-1 Tam1 [3] = experiment: as above; details: 4-OH-tamoxifen in medium 1 µM; 72 h
Description: as §1

BT-474 [4] = experiment: as above; details: 72 h
Description: as §1

T-47D Tam1 [5] = experiment: as above; details: 4-OH-tamoxifen in medium 1 µM; 72 h
Description: as §1

MCF-7 [6] = experiment: as above; details: 72 h
Description: as §1

BT-474 Tam2 [7] = experiment: as above; details: 4-OH-tamoxifen in medium 1 µM; 72 h
Description: as §1

BT-474 Tam1 [8] = experiment: as above; details: 4-OH-tamoxifen in medium 1 µM; 72 h
Description: as §1

ZR-75-1 Tam2 [9] = experiment: as above; details: 4-OH-tamoxifen in medium 1 µM; 72 h
Description: as §1

MCF-7 Tam1 [10] = experiment: as above; details: 4-OH-tamoxifen in medium 1 µM; 72 h
Description: as §1

ZR-75-1 [11] = experiment: drug sensitivity score (DSS) (DSS (dimensionless)); higher = more sensitive; extreme values may be limits of the assay; details: 72 h
Description: (§2)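 FIMM FO2B library drugs were tested at 5 concentrations (10,000-fold range) for 72 h, with CellTiter-Glo viability normalised to DMSO and benzethonium chloride controls. The Drug Sensitivity Score (DSS) is computed from the fitted logistic dose-response curve (area-based; 0 = inactive). Resistant lines and the 'in 1µM tamoxifen' arms were tested in 1 µM 4-OH-tamoxifen.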

T-47D [12] = experiment: as above; details: 72 h
Description: as §2

ZR-75-1 Tam1 [13] = experiment: as above; details: 4-OH-tamoxifen in medium 1 µM; 72 h
Description: as §2

T-47D Tam2 = experiment: as above; details: 4-OH-tamoxifen in medium 1 µM; 72 h
Description: as §2

BT-474 [14] = experiment: as above; details: 72 h
Description: as §2

T-47D Tam1 [15] = experiment: as above; details: 4-OH-tamoxifen in medium 1 µM; 72 h
Description: as §2

MCF-7 [16] = experiment: as above; details: 72 h
Description: as §2

BT-474 Tam2 [17] = experiment: as above; details: 4-OH-tamoxifen in medium 1 µM; 72 h
Description: as §2

BT-474 Tam1 [18] = experiment: as above; details: 4-OH-tamoxifen in medium 1 µM; 72 h
Description: as §2

ZR-75-1 Tam2 [19] = experiment: as above; details: 4-OH-tamoxifen in medium 1 µM; 72 h
Description: as §2

MCF-7 Tam1 [20] = experiment: as above; details: 4-OH-tamoxifen in medium 1 µM; 72 h
Description: as §2

SMILES | relative IC50 (ZR-75-1 [1]; 4-OH-tamoxifen in medium 0 µM) | relative IC50 (ZR-75-1 [1]; 4-OH-tamoxifen in medium 1 µM) | relative IC50 (T-47D [2]; 4-OH-tamoxifen in medium 0 µM) | relative IC50 (T-47D [2]; 4-OH-tamoxifen in medium 1 µM) | relative IC50 (ZR-75-1 Tam1 [3]) | relative IC50 (BT-474 [4]; 4-OH-tamoxifen in medium 0 µM) | relative IC50 (BT-474 [4]; 4-OH-tamoxifen in medium 1 µM) | relative IC50 (T-47D Tam1 [5]) | relative IC50 (MCF-7 [6]; 4-OH-tamoxifen in medium 0 µM) | relative IC50 (MCF-7 [6]; 4-OH-tamoxifen in medium 1 µM) | relative IC50 (BT-474 Tam2 [7]) | relative IC50 (BT-474 Tam1 [8]) | relative IC50 (ZR-75-1 Tam2 [9]) | relative IC50 (MCF-7 Tam1 [10]) | drug sensitivity score (ZR-75-1 [11]; 4-OH-tamoxifen in medium 0 µM) | drug sensitivity score (ZR-75-1 [11]; 4-OH-tamoxifen in medium 1 µM) | drug sensitivity score (T-47D [12]; 4-OH-tamoxifen in medium 0 µM) | drug sensitivity score (T-47D [12]; 4-OH-tamoxifen in medium 1 µM) | drug sensitivity score (ZR-75-1 Tam1 [13]) | drug sensitivity score (T-47D Tam2) | drug sensitivity score (BT-474 [14]; 4-OH-tamoxifen in medium 0 µM) | drug sensitivity score (BT-474 [14]; 4-OH-tamoxifen in medium 1 µM) | drug sensitivity score (T-47D Tam1 [15]) | drug sensitivity score (MCF-7 [16]; 4-OH-tamoxifen in medium 0 µM) | drug sensitivity score (MCF-7 [16]; 4-OH-tamoxifen in medium 1 µM) | drug sensitivity score (BT-474 Tam2 [17]) | drug sensitivity score (BT-474 Tam1 [18]) | drug sensitivity score (ZR-75-1 Tam2 [19]) | drug sensitivity score (MCF-7 Tam1 [20])
CC(C)C[C@H](NC(=O)[C@@H](COC(C)(C)C)NC(=O)[C@H](Cc1ccc(O)cc1)NC(=O)[C@H](CO)NC(=O)[C@H](Cc1c[nH]c2ccccc12)NC(=O)[C@H](Cc1cnc[nH]1)NC(=O)[C@@H]1CCC(=O)N1)C(=O)N[C@@H](CCCNC(=N)N)C(=O)N1CCC[C@H]1C(=O)NNC(N)=O [Goserelin acetate] | > 10 µM | > 10 µM | > 10 µM | > 10 µM | > 10 µM | > 10 µM | > 10 µM | > 10 µM | > 10 µM | > 10 µM | > 10 µM | > 10 µM | > 10 µM | > 10 µM | 0 | 0 | 0 | 0 | 0 | 0.105 | 0 | 0 | 0 | 0 | 0 | 0 | 0 | 0 | 0
CCCC(CCC)C(=O)O [Valproic acid] | > 10 µM | > 10 µM | > 10 µM | – | > 10 µM | > 10 µM | > 10 µM | > 10 µM | > 10 µM | > 10 µM | > 10 µM | > 10 µM | > 10 µM | > 10 µM | 0 | 0 | 0 | 0.0101 | 0 | 1.73 | 0 | 0 | 0 | 0 | 0 | 0 | 0 | 0 | 0
CCCS(=O)(=O)Nc1ccc(F)c(C(=O)c2c[nH]c3ncc(-c4ccc(Cl)cc4)cc23)c1F [Vemurafenib (PLX4032)] | > 10 µM | – | > 10 µM | > 10 µM | > 10 µM | > 10 µM | – | > 10 µM | > 10 µM | > 10 µM | > 10 µM | > 10 µM | > 10 µM | > 10 µM | 0 | 0 | 0 | 0 | 0 | 1.67 | 0 | 0.086 | 0 | 0 | 0 | 0 | 0 | 0 | 0
CC(C)C(=O)Nc1ccc([N+](=O)[O-])c(C(F)(F)F)c1 [Flutamide] | > 10 µM | > 10 µM | > 10 µM | > 10 µM | > 10 µM | > 10 µM | > 10 µM | > 10 µM | > 10 µM | – | > 10 µM | > 10 µM | > 10 µM | > 10 µM | 0 | 0 | 0 | 0 | 0 | 0.0387 | 0 | 0 | 0 | 0 | 0.814 | 0 | 0 | 0 | 0
CC[C@@]1(O)C(=O)OCc2c1cc1n(c2=O)Cc2cc3c(CN(C)C)c(O)ccc3nc2-1 [Topotecan] | 0.0952 µM | 0.13 µM | 0.0779 µM | > 1 µM | 0.156 µM | > 1 µM | > 1 µM | 0.1 µM | – | – | > 1 µM | > 1 µM | 0.136 µM | > 1 µM | 5.48 | 3.54 | 7.46 | 0 | 3.45 | 1.16 | 0 | 0 | 5.31 | 0.567 | 2.53 | 0 | 0 | 4.55 | 0
CC1(C)CNc2cc(NC(=O)c3cccnc3NCc3ccncc3)ccc21 [Motesanib  (AMG-706)] | > 10 µM | > 10 µM | > 10 µM | > 10 µM | > 10 µM | > 10 µM | > 10 µM | > 10 µM | > 10 µM | > 10 µM | > 10 µM | > 10 µM | > 10 µM | > 10 µM | 0 | 0 | 0 | 0 | 0 | 0.166 | 0 | 0 | 0 | 0 | 0 | 0 | 0 | 0 | 0
CCc1c2c(nc3ccc(OC(=O)N4CCC(N5CCCCC5)CC4)cc13)-c1cc3c(c(=O)n1C2)COC(=O)[C@]3(O)CC [Irinotecan] | 1.71 µM | – | 1.24 µM | > 10 µM | 1.39 µM | > 10 µM | > 10 µM | 1.73 µM | – | – | > 10 µM | > 10 µM | 1.59 µM | > 10 µM | 3.43 | 1.34 | 4.39 | 0 | 3.21 | 0.581 | 0 | 0 | 2.72 | 1.56 | 1.5 | 0 | 0 | 3.94 | 0
CN1CCN(CCOc2cc(OC3CCOCC3)c3c(Nc4c(Cl)ccc5c4OCO5)ncnc3c2)CC1 [Saracatinib] | > 10 µM | > 10 µM | – | > 10 µM | > 10 µM | 2.15 µM | 1.29 µM | 0.504 µM | – | – | 1.35 µM | 1.17 µM | > 10 µM | > 10 µM | 0 | 0 | 1.32 | 0 | 0 | 3.11 | 3.72 | 9.8 | 5.37 | 2.15 | 0.814 | 10.1 | 10.8 | 0 | 0
CC(=O)Nc1ccc(C(=O)Nc2ccccc2N)cc1 [Tacedinaline (CI-994)] | > 1 µM | > 1 µM | > 1 µM | – | > 1 µM | > 1 µM | > 1 µM | > 1 µM | > 1 µM | > 1 µM | > 1 µM | > 1 µM | > 1 µM | > 1 µM | 0 | 0 | 0 | 0.0059 | 0 | 0.132 | 0 | 0 | 0 | 0 | 0 | 0 | 0 | 0 | 0
CCCCC/C=C/C=C1/C(=O)C=C[C@@H]1C/C=C\CCCC(=O)O [15D-PGJ2] | > 0.8 µM | > 0.8 µM | > 0.8 µM | > 0.8 µM | > 0.8 µM | > 0.8 µM | > 0.8 µM | > 0.8 µM | > 0.8 µM | > 0.8 µM | > 0.8 µM | > 0.8 µM | > 0.8 µM | > 0.8 µM | 0 | 0 | 0 | 0 | 0 | 0.598 | 0 | 0 | 0 | 0 | 0 | 0 | 0 | 0 | 0
CC1(C)CCC(c2ccc(Cl)cc2)=C(CN2CCN(c3ccc(C(=O)NS(=O)(=O)c4ccc(N[C@H](CCN5CCOCC5)CSc5ccccc5)c(S(=O)(=O)C(F)(F)F)c4)cc3)CC2)C1 [Navitoclax (ABT-263)] | > 10 µM | > 10 µM | > 10 µM | > 10 µM | > 10 µM | – | 1.61 µM | 0.326 µM | – | – | 0.723 µM | 1.15 µM | > 10 µM | > 10 µM | 0 | 0 | 0 | 0 | 0 | 1.65 | 0 | 4.26 | 14.1 | 1.6 | 0.949 | 3.9 | 2.79 | 0 | 0
C=C1C[C@@H]2[C@H](CC[C@]3(C)C(=O)CC[C@@H]23)[C@@]2(C)C=CC(=O)C=C12 [Exemestane] | > 10 µM | > 10 µM | > 10 µM | > 10 µM | > 10 µM | > 10 µM | > 10 µM | > 10 µM | – | – | > 10 µM | > 10 µM | > 10 µM | > 10 µM | 0 | 0 | 0 | 0 | 0 | 0.965 | 0 | 0 | 0 | 1.3 | 0 | 0 | 0 | 0 | 0
CC(O)(CS(=O)(=O)c1ccc(F)cc1)C(=O)Nc1ccc(C#N)c(C(F)(F)F)c1 (centres undefined) [Bicalutamide] | > 10 µM | > 10 µM | > 10 µM | – | > 10 µM | > 10 µM | > 10 µM | > 10 µM | > 10 µM | > 10 µM | > 10 µM | > 10 µM | > 10 µM | > 10 µM | 0 | 0 | 0 | 0 | 0 | 0.0904 | 0 | 0 | 0 | 0 | 0 | 0 | 0 | 0 | 0
O=C(c1cc(Cc2n[nH]c(=O)c3ccccc23)ccc1F)N1CCN(C(=O)C2CC2)CC1 [Olaparib] | > 10 µM | > 10 µM | – | > 10 µM | > 10 µM | > 10 µM | > 10 µM | > 10 µM | > 10 µM | – | > 10 µM | – | > 10 µM | > 10 µM | 0 | 0 | 0 | 0 | 0 | 0.0505 | 0 | 0 | 0 | 0 | 0.285 | 0 | 0.0009 | 0 | 0

Source: the supplement of paper PMC4932681
